Measurements from patent EP4603105A1, “PHARMACEUTICAL COMPOSITION CONTAINING CYCLIC COMPOUND HAVING SELECTIVE KRAS INHIBITORY EFFECT AGAINST HRAS AND NRAS” (CHUGAI SEIYAKU KABUSHIKI KAISHA, priority 2022, dated 2024).
Where a SMILES comes first, the peptide text is derived from it. Bridges are numbered along the chain shown (N, C = ends). [ ]: non-standard residue; d: D form. The star is where a group is joined. hPhe(3-Cl-4-CF3) = N[C@@H](CCc1ccc(C(F)(F)F)c(Cl)c1)C(=O)O; NPrPhe(4-CF3) = CCCN[C@@H](Cc1ccc(C(F)(F)F)cc1)C(=O)O; NEtPhe(4-Me) = CCN[C@@H](Cc1ccc(C)cc1)C(=O)O; Abu(4,4,4-F3) = N[C@@H](CC(F)(F)F)C(=O)O; NMeGly(cPent) = CN[C@H](C(=O)O)C1CCCC1; cisHyp = O=C(O)[C@@H]1C[C@H](O)CN1; Hyp = O=C(O)[C@@H]1C[C@@H](O)CN1; NMeI = CC[C@H](C)[C@H](NC)C(=O)O; NMeD = CN[C@@H](CC(=O)O)C(=O)O; NMeL = CN[C@@H](CC(C)C)C(=O)O; Morpholide = C1CN(*)CCO1; Ac5c = NC1(C(=O)O)CCCC1; Ac4c = NC1(C(=O)O)CCC1; NEtG = CCNCC(=O)O; Sar = CNCC(=O)O

Key:
HRAS wild-type protein = HRAS wild-type protein (Homo sapiens, UniProt P01112); assay: Binding to HRAS by surface plasmon resonance (SPR), KD and KD ratio to KRAS
In short: (§1)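 Captured GDP-RAS (~100–300 RU) was exposed to increasing compound concentrations, 75 s per step, in running buffer with 10 µM GDP, 10 mM MgCl2 and 4% DMSO at pH 7.4.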

[1] = biological target: GDP-bound NRAS wild-type protein (Homo sapiens, UniProt P01111); assay: Binding to NRAS by surface plasmon resonance (SPR), KD and KD ratio to KRAS
In short: as §1

[2] = system: human lung cancer strain NCI-H441; format: cell-based
In short: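 Step one: dispense the test compound in serial DMSO dilutions. Step three: add the reagent and measure […].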

[3] = ratio of KD value for HRAS wild-type protein to KD value for KRAS (SPR)
[4] = ratio of KD value for GDP-bound NRAS wild-type protein to KD value for KRAS (SPR)
[5] = ratio of KD for HRAS wild-type protein to KD for KRAS
[6] = ratio of KD for GDP-bound NRAS wild-type protein to KD for KRAS
[7] = ratio of the KD value with respect to HRAS wild-type protein to the KD value with respect to KRAS
[8] = ratio of the KD value with respect to GDP-bound NRAS wild-type protein to the KD value with respect to KRAS

Sequence of GDP-bound NRAS wild-type protein (P01111 whole entry): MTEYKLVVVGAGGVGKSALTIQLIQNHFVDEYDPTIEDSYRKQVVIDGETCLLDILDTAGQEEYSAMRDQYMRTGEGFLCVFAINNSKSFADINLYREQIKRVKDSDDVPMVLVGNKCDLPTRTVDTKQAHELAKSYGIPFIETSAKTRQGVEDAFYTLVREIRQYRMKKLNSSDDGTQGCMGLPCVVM
Sequence of HRAS wild-type protein (P01112 whole entry): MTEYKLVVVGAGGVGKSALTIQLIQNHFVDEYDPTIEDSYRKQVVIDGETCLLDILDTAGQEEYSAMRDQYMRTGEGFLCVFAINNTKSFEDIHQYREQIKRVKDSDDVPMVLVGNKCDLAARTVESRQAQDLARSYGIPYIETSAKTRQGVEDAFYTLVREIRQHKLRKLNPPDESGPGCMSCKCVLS

| Structure (SMILES) | HRAS /KRAS (HRAS wild-type protein; [3]) | NRAS /KRAS [1, 4] | IC50 [2] | HRAS /KRAS (HRAS wild-type protein; [5]) | NRAS /KRAS [1, 6] | HRAS /KRAS (HRAS wild-type protein; [7]) | NRAS /KRAS [1, 8] |
| --- | --- | --- | --- | --- | --- | --- | --- |
| CCO[C@@H]1C[C@H]2C(=O)NC3(CC(C)(C)C3)C(=O)N(C)[C@@H](C3CCCC3)C(=O)N(C)[C@H](C(=O)N(C)C)CC(=O)N(C)[C@@H](CC(F)(F)F)C(=O)N[C@@H]([C@@H](C)CC)C(=O)N(C)CC(=O)N(C)[C@H]3C/C=C\CCN(C3=O)[C@@H](Cc3ccc(C(F)(F)F)cc3)C(=O)N(C)CC(=O)N[C@@H](CCc3cc(F)c(C(F)(F)F)c(F)c3)C(=O)N2C1 [PP1644] | A (a compound having 10 or more and less than 20 is denoted as A) | A (a compound having 10 or more and less than 20 is denoted as A) | 2.7 nM |  |  |  |  |
| CCCN1C(=O)CN(C)C(=O)CN(CC)C(=O)[C@H](CC(F)(F)F)NC(=O)[C@H](CC(C)C)N(C)C(=O)C[C@@H](C(=O)N2CCOCC2)N(C)C(=O)[C@H](C2CCCC2)N(C)C(=O)C2(CCCC2)NC(=O)[C@@H]2CCCN2C(=O)[C@H](CCc2ccc(C(F)(F)F)c(Cl)c2)NC(=O)CN(C)C(=O)[C@@H]1Cc1ccc(C(F)(F)F)cc1 [PP0291] ([NMeL][Abu(4,4,4-F3)][NEtG][Sar][NPrPhe(4-CF3)][Sar][hPhe(3-Cl-4-CF3)]P[Ac5c][NMeGly(cPent)][NMeD]-Morpholide; lactam N-11) |  |  | 31 nM | B (a compound having 3 or more and less than 10 is denoted as B) | B (a compound having 3 or more and less than 10 is denoted as B) |  |  |
| CC[C@H](C)[C@@H]1NC(=O)[C@H](CC(C)C)N(C)C(=O)C[C@@H](C(=O)N2CCOCC2)N(C)C(=O)[C@H](C2CCCC2)N(C)C(=O)C2(CCCC2)NC(=O)[C@@H]2CCCN2C(=O)[C@H](CCc2ccc(C(F)(F)F)c(Cl)c2)NC(=O)CN(CC)C(=O)[C@H](Cc2ccc(C)cc2)N(CC)C(=O)CN(CC)C(=O)CN(C)C1=O [PP0030] ([NMeL]I[Sar][NEtG][NEtPhe(4-Me)][NEtG][hPhe(3-Cl-4-CF3)]P[Ac5c][NMeGly(cPent)][NMeD]-Morpholide; lactam N-11) |  |  | 86.7 nM | C (A compound having a KD ratio of 0.1 or more and less than 3 is denoted as C) | C (A compound having a KD ratio of 0.1 or more and less than 3 is denoted as C) |  |  |
| CC[C@H](C)[C@@H]1NC(=O)[C@H](CC(C)C)N(C)C(=O)C[C@@H](C(=O)N2CCOCC2)N(C)C(=O)[C@H](C2CCCC2)N(C)C(=O)C2(CCCC2)NC(=O)[C@@H]2CCCN2C(=O)[C@H](CCc2cc(F)c(C(F)(F)F)c(F)c2)NC(=O)CN(C)C(=O)[C@H](Cc2ccc(C(F)(F)F)cc2)N2CCCC[C@@H](C2=O)N(C)C(=O)[C@@H]2CCCCN2C1=O [PP0548] |  |  | 501 nM |  |  | B (a compound having 3 or more and less than 10 is denoted as B) | C (A compound having a KD ratio of 0.1 or more and less than 3 is denoted as C) |
| CCCN1C(=O)CN(C)C(=O)CN(C)C(=O)[C@H]([C@@H](C)CC)NC(=O)[C@H](CC(C)C)N(C)C(=O)C[C@@H](C(=O)N2CCOCC2)N(C)C(=O)[C@H](C2CCCC2)N(C)C(=O)C2(CCCC2)NC(=O)[C@@H]2C[C@H](OCC)CN2C(=O)[C@H](CCc2ccc(C(F)(F)F)c(Cl)c2)NC(=O)CN(C)C(=O)[C@@H]1Cc1ccc(C(F)(F)F)cc1 [PP0243] ([NMeL]I[Sar][Sar][NPrPhe(4-CF3)][Sar][hPhe(3-Cl-4-CF3)][cisHyp](Et)[Ac5c][NMeGly(cPent)][NMeD]-Morpholide; lactam N-11) |  |  | 23.2 nM | C (A compound having a KD ratio of 0.1 or more and less than 3 is denoted as C) | B (a compound having 3 or more and less than 10 is denoted as B) |  |  |
| CC[C@H](C)[C@@H]1NC(=O)[C@@H]2CCCc3ccc(cc3)C[C@@H](C(=O)N(C)CC(=O)N[C@@H](CCc3ccc(C(F)(F)F)c(OC)c3)C(=O)N3C[C@H](OC4CCCC4)C[C@H]3C(=O)NC3(CC(C)(C)C3)C(=O)N(C)[C@@H](C3CCCC3)C(=O)N(C)[C@H](C(=O)N(C)CC)CC(=O)N2C)N2CC/C=C\C[C@@H](C2=O)N(C)C(=O)CN(C)C1=O [PP3086] |  |  | 7.9 nM | B (a compound having 3 or more and less than 10 is denoted as B) | B (a compound having 3 or more and less than 10 is denoted as B) |  |  |
| CCCN1C(=O)CN(C)C(=O)CN(CC)C(=O)[C@H]([C@@H](C)CC)NC(=O)[C@H](CC(C)C)N(C)C(=O)C[C@@H](C(=O)N(C)C)N(C)C(=O)[C@H](C2CCCC2)N(C)C(=O)C2(CCC2)NC(=O)[C@@H]2C[C@@H](OCC)CN2C(=O)[C@H](CCc2ccc(C(F)(F)F)c(Cl)c2)NC(=O)CN(C)C(=O)[C@@H]1Cc1ccc(C(F)(F)F)cc1 [PP0428] ([NMeL]I[NEtG][Sar][NPrPhe(4-CF3)][Sar][hPhe(3-Cl-4-CF3)][Hyp](Et)[Ac4c][NMeGly(cPent)][NMeD]-NMe2; lactam N-11) |  |  | 4.6 nM |  |  | C (A compound having a KD ratio of 0.1 or more and less than 3 is denoted as C) | B (a compound having 3 or more and less than 10 is denoted as B) |
| CCCN(C)C(=O)[C@@H]1CC(=O)N(C)[C@@H](CC)C(=O)N[C@@H]([C@@H](C)CC)C(=O)N(C)CC(=O)N(C)[C@H]2C/C=C\CCN(C2=O)[C@@H](Cc2ccc(C(F)(F)F)cc2)C(=O)N(C)CC(=O)N[C@@H](CCc2cc(F)c(C(F)(F)F)c(F)c2)C(=O)N2C[C@H](OCC)C[C@H]2C(=O)NC2(CCC2)C(=O)N(C)[C@@H](C2CCCC2)C(=O)N1C [PP1699] | A (a compound having 10 or more and less than 20 is denoted as A) | A (a compound having 10 or more and less than 20 is denoted as A) | 2.5 nM |  |  |  |  |
| CCO[C@@H]1C[C@H]2C(=O)NC3(CCC3)C(=O)N(C)[C@@H](C3CCCC3)C(=O)N(C)[C@H](C(=O)N3CCOCC3)CC(=O)N(C)[C@@H](COC)C(=O)N[C@@H]([C@@H](C)CC)C(=O)N(C)CC(=O)N(C)[C@H]3CCCCN(C3=O)[C@@H](Cc3ccc(C(F)(F)F)cc3)C(=O)N(C)CC(=O)N[C@@H](CCc3cc(F)c(C(F)(F)F)c(F)c3)C(=O)N2C1 [PP0719] |  |  | 8.5 nM |  |  | B (a compound having 3 or more and less than 10 is denoted as B) | C (A compound having a KD ratio of 0.1 or more and less than 3 is denoted as C) |
| CCCN1C(=O)CN(C)C(=O)CN(C)C(=O)[C@H]([C@@H](C)CC)NC(=O)[C@H](CC(C)C)N(C)C(=O)C[C@@H](C(=O)N2CCOCC2)N(C)C(=O)[C@H]([C@@H](C)CC)N(C)C(=O)C2(CCCC2)NC(=O)[C@@H]2CCCN2C(=O)[C@H](CCc2ccc(C(F)(F)F)c(Cl)c2)NC(=O)CN(C)C(=O)[C@@H]1Cc1ccc(C(F)(F)F)cc1 [PP1926] ([NMeL]I[Sar][Sar][NPrPhe(4-CF3)][Sar][hPhe(3-Cl-4-CF3)]P[Ac5c][NMeI][NMeD]-Morpholide; lactam N-11) |  |  | 17.4 nM |  |  | B (a compound having 3 or more and less than 10 is denoted as B) | B (a compound having 3 or more and less than 10 is denoted as B) |
| CCO[C@@H]1C[C@H]2C(=O)NC3(CC(C)(C)C3)C(=O)N(C)[C@@H](C(CC)CC)C(=O)N(C)[C@H](C(=O)N3CCCC3)CC(=O)N(C)[C@H]3CCC/C=C/c4ccc(cc4)C[C@@H](C(=O)N(C)CC(=O)N[C@@H](CCc4cc(F)c(C(F)(F)F)c(F)c4)C(=O)N2C1)N1CC/C=C\C[C@@H](C1=O)N(C)C(=O)CN(C)C(=O)[C@H]([C@@H](C)CC)NC3=O [PP2576] |  |  | 5.7 nM | A (a compound having 10 or more and less than 20 is denoted as A) | A (a compound having 10 or more and less than 20 is denoted as A) |  |  |
